Results on 2 compounds are retold here after patent US4740501A (priority 1985, dated 1988).

Type in all cases: cell-based
The test system of one assay is L1210S. As to the kind of experiment: cells. Conditions: read-out: T.C.D.50.
For another assay, the system named is L1210DDP. The assay can be described thus: cells.
In another assay the test system is L1210 MTX. As to the kind of experiment: MTX and cisplatin cross-resistance test, 24 hour exposure.

Structures are written as SMILES. Read-outs that look alike come from different tables or passages of the source.

Take `N.N.[Cl][Pt][Cl]` [cisplatin, cis-diamminedichloroplatinum (II), reference compound]: the figures for the IC50 with L1210S (parental L1210S) and in the assay on L1210DDP (read-out: T.C.D.50) were 1500 nM and 30000 nM, respectively. The “resistance of L1210DDP compared to L1210S” value in the assay with L1210DDP came out at 20 fold.
Take `CN(Cc1cnc2nc(N)nc(N)c2n1)c1ccc(C(=O)N[C@@H](CCC(=O)O)C(=O)O)cc1` [MTX, methotrexate, reference compound]: the IC50 is 5 nM in the assay on L1210S and 500 nM in the assay with L1210 MTX (Mus musculus, L1210 MTX, characterisation of resistant line, read-out: T.C.D.50). Moreover, the “resistance of L1210 MTX compared to L1210S” value in the assay with L1210 MTX is given as 100 times.
